Results published in ChEMBL document CHEMBL5131569, “SAGE-718: A First-in-Class N-Methyl-d-Aspartate Receptor Positive Allosteric Modulator for the Potential Treatment of Cognitive Impairment” (J Med Chem, 2022).
Converted amounts (≈) assume the structure as drawn.

Columns and labels:
[1] = target: T1, Glutamate NMDA receptor; GRIN1/GRIN2A (Homo sapiens, UniProt Q05586+Q12879); test: Positive allosteric modulation of recombinant human GluN1/GluN2A receptor stably expressed in HEK293 cells assessed as increase in glycine/L-glutamate-induced channel current at -70 mV holding potential by whole cell patch clamp method; type: cell-based
[2] = target: T2, Glutamate NMDA receptor; GRIN1/GRIN2B (Homo sapiens, UniProt Q05586+Q13224); test: Positive allosteric modulation of recombinant human GluN1/GluN2B receptor stably expressed in HEK293 cells assessed as increase in glycine/L-glutamate-induced channel current at -70 mV holding potential by whole cell patch clamp method; type: cell-based
[3] = target: T2, Glutamate NMDA receptor; GRIN1/GRIN2B; test: Positive allosteric modulation of recombinant human GluN1/GluN2B receptor stably expressed in HEK293 cells assessed as increase in glycine/L-glutamate-induced channel current at -70 mV holding potential by whole cell patch clamp method relative to control; type: cell-based; settings: filed as positive allosteric modulator
[4] = target: T1, Glutamate NMDA receptor; GRIN1/GRIN2A; test: Positive allosteric modulation of recombinant human GluN1/GluN2A receptor stably expressed in HEK293 cells assessed as increase in glycine/L-glutamate-induced channel current at -70 mV holding potential by whole cell patch clamp method relative to control; type: cell-based; settings: filed as positive allosteric modulator
[5] = Lipophilicity, logD of compound in MeOH at 20 uM by HPLC analysis; type: physicochemical
[6] = Metabolic stability in mouse liver microsomes assessed as intrinsic clearance at 10 uM preincubated for 5 mins followed by NADPH addition and measured upto 65 mins by LC-MS/MS analysis; type: ADME, Microsome; settings: time < 70 min, read-out: CLH
[7] = Metabolic stability in human liver microsomes assessed as intrinsic clearance at 10 uM preincubated for 5 mins followed by NADPH addition and measured upto 65 mins by LC-MS/MS analysis; type: ADME, Microsome; settings: time < 70 min, read-out: CLH
[8] = Clearance in Sprague-Dawley rat by LC-MS/MS analysis; type: ADME; settings: in vivo
[9] = Oral bioavailability in Sprague-Dawley rat by LC-MS/MS analysis; type: ADME, organism-based; settings: in vivo
[10] = Ratio of drug concentration in ip dosed CD-1 mouse brain to plasma after 1 hr by LC-MS/MS analysis; type: ADME, organism-based; settings: brain and plasma
[11] = Clearance in po dosed rat; type: ADME, organism-based; settings: in vivo
[12] = Half life in po dosed rat; type: ADME, organism-based; settings: in vivo
[13] = Oral bioavailability in rat; type: ADME, organism-based; settings: in vivo
[14] = Metabolic stability in rat liver microsomes assessed as intrinsic clearance at 10 uM preincubated for 5 mins followed by NADPH addition and measured upto 65 mins by LC-MS/MS analysis; type: ADME, Microsome; settings: time < 70 min, read-out: CLH
[15] = Aqueous solubility of compound in PBS incubated for 1 hr under shaking condition by HPLC-MS/MS analysis; type: physicochemical
[16] = Metabolic stability in dog liver microsomes assessed as intrinsic clearance at 10 uM preincubated for 5 mins followed by NADPH addition and measured upto 65 mins by LC-MS/MS analysis; type: ADME, Canis lupus familiaris, Microsome; settings: time < 70 min, read-out: CLH
[17] = Clearance in CD-1 mouse by LC-MS/MS analysis; type: ADME; settings: in vivo
[18] = Clearance in Beagle dog by LC-MS/MS analysis; type: ADME, Canis lupus familiaris; settings: in vivo
[19] = Oral bioavailability in CD-1 mouse by LC-MS/MS analysis; type: ADME, organism-based; settings: in vivo
[20] = Oral bioavailability in Beagle dog by LC-MS/MS analysis; type: ADME, organism-based, Canis lupus familiaris; settings: in vivo

Row | Structure (SMILES) | EC50 [1] [nM] | EC50 [2] [nM] | Emax [3] [%] | Emax [4] [%] | further results
1 | C[C@H](CC[C@@](C)(O)C(F)(F)F)[C@H]1CC[C@H]2[C@@H]3CC=C4C[C@@](C)(O)CC[C@]4(C)[C@H]3CC[C@]12C | 310 | 180 | – | – | –
2 | C#C[C@@](C)(O)CC[C@@H](C)[C@H]1CC[C@H]2[C@@H]3CC=C4C[C@@](C)(O)CC[C@]4(C)[C@H]3CC[C@]12C | > 10000 | 1100 | 56 | – | –
3 | CC(C)[C@@](C)(O)CC[C@@H](C)[C@H]1CC[C@H]2[C@@H]3CC=C4C[C@@](C)(O)CC[C@]4(C)[C@H]3CC[C@]12C | 60 | 23 | 220 | 260 | logD at 20 µM [5]: 6.7; microsomal CLint at 10 µM [6]: 31 µL/min/mg; microsomal CLint at 10 µM [7]: 6.8 µL/min/mg; clearance [8]: 31.7 mL/min/kg; bioavailability [9]: 116%; Kp at 1 h [10]: 0.2
4 | C[C@H](CC[C@@H](O)C(F)(F)F)[C@H]1CC[C@H]2[C@@H]3CC=C4C[C@@](C)(O)CC[C@]4(C)[C@H]3CC[C@]12C | – | – | – | – | CL/F [11]: 33.3 mL/min/kg; half-life [12]: 5.75 h; bioavailability [13]: 18%
5 | C[C@H](CC[C@](C)(O)C(F)(F)F)[C@H]1CC[C@H]2[C@@H]3CC=C4C[C@](C)(O)CC[C@]4(C)[C@H]3CC[C@]12C | 2200 | 1500 | – | – | –
6 | CC[C@@](C)(O)CC[C@@H](C)[C@H]1CC[C@H]2[C@@H]3CC=C4C[C@@](C)(O)CC[C@]4(C)[C@H]3CC[C@]12C | 150 | 300 | 190 | 280 | –
7 | CC(C)[C@@H](O)CC[C@@H](C)[C@H]1CC[C@H]2[C@@H]3CC=C4C[C@@H](O)CC[C@]4(C)[C@H]3CC[C@]12C | – | – | – | – | CL/F [11]: 91.7 mL/min/kg; half-life [12]: < 0.6 h; bioavailability [13]: < 10%
8 | C[C@H](CC[C@](C)(O)C1CC1)[C@H]1CC[C@H]2[C@@H]3CC=C4C[C@@](C)(O)CC[C@]4(C)[C@H]3CC[C@]12C | 420 | 60 | 130 | 130 | –
9 | C#C[C@](C)(O)CC[C@@H](C)[C@H]1CC[C@H]2[C@@H]3CC=C4C[C@@](C)(O)CC[C@]4(C)[C@H]3CC[C@]12C | > 10000 | > 10000 | – | – | –
10 | C[C@H](CCC(C)(C)O)[C@H]1CC[C@H]2[C@@H]3CC=C4C[C@@](C)(O)CC[C@]4(C)[C@H]3CC[C@]12C | – | – | – | – | microsomal CLint at 10 µM [14]: 35 µL/min/mg; logD at 20 µM [5]: 5; solubility at 1 h [15]: 0.62 µM (≈ 0.25 µg/mL); microsomal CLint at 10 µM [6]: 42 µL/min/mg; microsomal CLint at 10 µM [16]: 16 µL/min/mg; microsomal CLint at 10 µM [7]: 13 µL/min/mg; clearance [17]: 18.3 mL/min/kg; clearance [8]: 30 mL/min/kg; clearance [18]: 3.33 mL/min/kg; bioavailability [19]: 53%; bioavailability [9]: 23%; bioavailability [20]: 17%; Kp at 1 h [10]: 0.6; CL/F [11]: 18.3 mL/min/kg; half-life [12]: 1.7 h
11 | CC[C@](C)(O)CC[C@@H](C)[C@H]1CC[C@H]2[C@@H]3CC=C4C[C@@](C)(O)CC[C@]4(C)[C@H]3CC[C@]12C | 55 | 100 | 120 | 170 | microsomal CLint at 10 µM [14]: 2.7 µL/min/mg; logD at 20 µM [5]: 6.5; microsomal CLint at 10 µM [6]: 8.4 µL/min/mg; microsomal CLint at 10 µM [7]: 0.14 µL/min/mg; clearance [8]: 36.7 mL/min/kg; bioavailability [9]: 89%; Kp at 1 h [10]: 0.2
12 | C[C@H](CC[C@](C)(O)C(F)(F)F)[C@H]1CC[C@H]2[C@@H]3CC=C4C[C@@](C)(O)CC[C@@H]4[C@H]3CC[C@]12C | 93 | 250 | 52 | 50 | –
13 | C[C@H](CC[C@@](C)(O)C1CC1)[C@H]1CC[C@H]2[C@@H]3CC=C4C[C@@](C)(O)CC[C@]4(C)[C@H]3CC[C@]12C | 74 | 49 | 140 | 180 | –
14 | C[C@H](CC[C@](C)(O)CCO)[C@H]1CC[C@H]2[C@@H]3CC=C4C[C@@](C)(O)CC[C@]4(C)[C@H]3CC[C@]12C | > 10000 | > 10000 | – | – | –
15 | COCC[C@@](C)(O)CC[C@@H](C)[C@H]1CC[C@H]2[C@@H]3CC=C4C[C@@](C)(O)CC[C@]4(C)[C@H]3CC[C@]12C | 220 | 590 | 130 | 87 | –
16 | CCCC[C@](C)(O)CC[C@@H](C)[C@H]1CC[C@H]2[C@@H]3CC=C4C[C@@](C)(O)CC[C@]4(C)[C@H]3CC[C@]12C | 100 | 450 | 170 | 170 | –
17 | C[C@H](CC[C@](C)(O)C(F)(F)F)[C@H]1CC[C@H]2[C@@H]3CC[C@@H]4C[C@@](C)(O)CC[C@]4(C)[C@H]3CC[C@]12C | > 10000 | > 10000 | – | – | –
18 | CCCC[C@@](C)(O)CC[C@@H](C)[C@H]1CC[C@H]2[C@@H]3CC=C4C[C@@](C)(O)CC[C@]4(C)[C@H]3CC[C@]12C | 160 | 190 | 170 | 190 | –
19 | C[C@H](CC[C@@](C)(O)CCO)[C@H]1CC[C@H]2[C@@H]3CC=C4C[C@@](C)(O)CC[C@]4(C)[C@H]3CC[C@]12C | > 10000 | > 10000 | – | – | –
20 | C[C@H](CC[C@](C)(O)C(F)(F)F)[C@H]1CC[C@H]2[C@@H]3CC[C@H]4C[C@@](C)(O)CC[C@]4(C)[C@H]3CC[C@]12C | 180 | 110 | 100 | 150 | –
21 | CC(C)[C@](C)(O)CC[C@@H](C)[C@H]1CC[C@H]2[C@@H]3CC=C4C[C@@](C)(O)CC[C@]4(C)[C@H]3CC[C@]12C | 120 | 81 | 150 | 170 | –
